# According to US5328913A, “Minoxidil analogs as inhibitors of cell proliferation and lysyl hydroxylase” (priority 1992, dated 1994):
# Experiments:
# prolyl hydroxylase = test: Prolyl hydroxylase activity in extracts of treated human skin fibroblasts (Example 1, tritium-release assay); type: cell-based; details: cultured fibroblasts, 72 h, Example 1
# Procedure: (§1) Cultures of human skin fibroblasts grown to confluence were incubated for 72 h in medium supplemented with 1% ethanol containing various concentrations of minoxidil or deoxyminoxidil as indicated. Cells were then harvested, and the enzyme activities in extracts of these cells were measured by tritium-release assays (Murad and Pinnell, J. Biol. Chem. 262:11,973 (1987)). The results are expressed as percentages of zero-concentration values.
# as §1, with “with 1% acetone containing various concentrations of minoxidil sulfate,” for “deoxyminoxidil”, “tritium release” for “tritium-release”
# Skin fibroblast cultures derived from an apparently normal child (GM05659) were obtained from the Institute for Medical Research, Camden, N.J. The cells were subcultured by trypsinization and used before 25 population doublings. Typically, 4×10^5 cells were seeded onto 100-mm (diameter) plastic petri dishes and allowed to grow in 10 ml of Dulbecco's modified Eagle's minimum essential medium containing 5.6 mM glucose, buffered in pH 7.4 with 24 mM sodium biocarbonate/25 mM Hepes and supplemented with 20% (v/v) calf serum which had been inactivated for 30 min at 56° C. The cells were incubated at 37° C. in a humidified atmosphere of 5% CO2 plus 95% air.
# After a week, the medium was replaced with medium supplemented with 0.5% heat-inactivated diaylzed calf serum, and the incubation was continued for 72 h in the presence of minoxidil or one of its structural analogs. The compounds were dissolved in 95% ethanol, except minoxidil sulfate which was dissolved in acetone; the final solvent concentration was 1% (v/v). During the last 3 h of incubation, cells received 100 μM Na L-ascorbate to ensure complete hydroxylation of the polypeptide precursors of precollagen (Murad et al, J. Invest. Dermatol. 75:404 (1980)).
# The medium was then removed and the cells were washed twice with a solution containing 0.14 M NaCl, 5 mM KCl, 0.3 mM Na2 PO4, and 0.4 mM KH2 PO4, adjusted to pH 7.4. […] The trypsinization was terminated with 2 vol of 20% serum-supplemented medium, and the cell number in an aliquot of the suspension was determined using a Coulter counter. […]
# The protein content of cell extracts was determined by a dye-binding technique using Bio-Rad reagent and protein standard (Bradford, Anal. Biochem. 72:248 (1976)).
# [1] = test system: Lysyl Hydroxylations in Human Skin Fibroblasts; test: Hydroxylation of lysine residues in type I procollagen (Hyl/Lys); type: cell-based; details: for Hyl/Lys: 72 hr
# Procedure: Culture of human skin fibroblasts derived from an apparently normal adult were grown to confluent densities in Dulbecco's modified Eagle's medium supplemented with 10% (v/v) fetal calf serum. Thereafter, the medium was replaced with medium supplemented with 0.5% dialyzed fetal calf serum. The cultures were treated for 72 hr with 1 mM minoxidil, 3'- hydroxyminoxidil,or 4'-hydroxyminoxidil (Upjohn) dissolved in aqueous medium. In some experiments, minoxodil was dissolved in 95% (v/v) ethanol; […]. Cultures treated with ethanol only served as the control.
# During the last 6 hr of treatment, cultures were labeled with 50 μCi of L-[2,3-^3 H]proline (35 Ci/mmol) and 50 μCi of L[U-^14 C]lysine ([…]) in 4 ml of lysine-free medium supplemented with 100 μM ascorbic acid. At the end of the incubation period, the medium was removed and mixed with 1 mM each of EDTA, N-ethylmaleimide, and phenylmethylsulfonylfluoride, and the collagenous proteins were precipitated with 30% (NH4)2 SO4. The cell layer was scraped and extracted with 0.5 M acetic acid containing the protease inhibitors as above. The cell extract was neutralized, and the collagenous proteins were precipitated as above. The (NH4)2 SO4 precipitate from the medium and cell layer was separately dissolved in 0.1% SDS/10 mM Tris-HCl (pH 6.8), reduced with dithiothreitol, and analyzed by electrophoresis on 4% SDS-polyacrylamide gels. The bands corresponding to the proαl(I) and proα2(I) chains from the two fractions were pooled and hydrolyzed with 6 M HCl for 24 hr at 110° C. Proline, hydroxyproline, lysine, and hydroxylysine in the hydrolysate were separated by HPLC (Takimitsa et al, J. Dermatol. 16:37 (1989)), and their radioactivity was determined in a Beckman liquid scintillation counter. To isolate type I procollagen the precipitate from the medium and cell layer was separately dissolved in 25 mM Tris-HCl, pH 7.5, containing 2 M urea and 1 mM each of EDTA, N-ethylmaleimide, and phenylmethylsulfonylfluoride, then chromatographed on a DEAE-cellulose column (Freiberger et al, J. Invest. Dermatol. 75:425 (1980)). The procollagen isolated from the two fractions was pooled, hydrolyzed, and analyzed as above.
# lysyl hydroxylase = test: Lysyl hydroxylase activity in fibroblasts treated with minoxidil and its hydroxy derivatives (Example 3); type: cell-based, human; details: for Fibroblast Lysyl Hydroxylase Activity: 48 hr
# Procedure: Culture of human skin fibroblasts derived from an apparently normal adult were grown to confluent densities in Dulbecco's modified Eagle's medium supplemented with 10% (v/v) fetal calf serum. Thereafter, the medium was replaced with medium supplemented with 0.5% dialyzed fetal calf serum. […] In some experiments, minoxodil was dissolved in 95% (v/v) ethanol; the final concentration of minoxidil was 0.3 mM and that of ethanol was 0.3%. Cultures treated with ethanol only served as the control.
# During the last 3 hr of treatment, cultures received 100 μM ascorbic acid. The enzyme activities in extracts of treated cells were measured by tritium-release assays described previously (Murad and Pinnell, J. Biol. Chem. 262:11,973 (1987)).
# [2] = test system: Lysyl Hydroxylations in Human Skin Fibroblasts; test: Hydroxylation of lysine residues in type I procollagen (Hyl/Lys); type: cell-based; details: 0.3 M, 72 hr
smiles,measurement,setting,value
Nc1cc(N2CCCCC2)nc(N)[n+]1[O-] [Minoxidil],effect on prolyl hydroxylase activity (in words),prolyl hydroxylase,no significant effect on prolyl hydroxylase activity
same,Hyl/Lys,"[1]; 1 mM, gel electrophoresis (Table V)",0.07 ± 0.02
same,Hyl/Lys,"[1]; 1 mM, type I procollagen chains isolated by gel electrophoresis, mean ± range of two experiments (description table)",0.07 ± 0.02
same,activity at 1000 µM,"[1]; Homo sapiens, Skin fibroblast, 1 mM, 72 hr (Table V), read-out: ratio of hydroxylysine to lysine, percentage of control value",32%
same,"ratio of hydroxylysine to lysine, % of control","[1]; procollagen isolated by column chromatography, 4320 min",50%
same,"ratio of hydroxylysine to lysine, % of control value","[1]; procollagen isolated by gel chromatography (so in the source), 4320 min",27%
same,Fibroblast Lysyl Hydroxylase Activity,lysyl hydroxylase; 1 mM,378 cpm^3 H2 O/mg protein
same,"Lysyl hydroxylase activity, % of control level","lysyl hydroxylase; 1 mM, 72 hr",25%
same,Lysyl Hydroxylase Activity,"lysyl hydroxylase; 1 mM, 72 hr (Table VI)",308 cpm ^3 H2 O/mg protein
same,Lysyl Hydroxylase Activity,"lysyl hydroxylase; 1 mM, 72 hr (description table)",308 cpm^3 H2 O/mg protein
same,lysyl hydroxylase suppressing activity at 5 mM (in words),lysyl hydroxylase; 5 mM,loses its effect
same,Fibroblast Lysyl Hydroxylase Activity,lysyl hydroxylase; 5 mM,1321 cpm^3 H2 O/mg protein
same,Hyl/Lys,"[2]; type I procollagen chains isolated by gel electrophoresis, mean ± range (Table IV)",0.08 ± 0.02
same,Hyl/Lys,[2]; type I procollagen isolated by column chromatography (Table IV),0.17
